The record followed here is US8530648B2, “Diaza-spiro[5.5]undecanes” (Novartis AG, priority 2009, dated 2013).

Test [1] addresses hOx2R (Homo sapiens (Human), UniProt O43614). Description: Calcium accumulation in cells (FLIPR), hOx2R. In kind it is cell-based. Particulars: for Ki: inhibition of orexin A induced calcium accumulation, Cheng and Prusoff correction; for inhibition at 10 µM: measured at a concentration of 10 μM of compound. As to the method:
(§1) Calcium Accumulation in Cells (FLIPR):
(§2) Cells expressing human orexin 1 or human orexin 2 receptors, were seeded at 8,000 cells/well in 384 well black-walled clear bottom, poly-D-lysine coated plates. After 24 h, the medium was removed and cells were washed once with phosphate buffered saline and serum-deprived overnight in assay buffer (130 mM NaCl, 5.4 mM KCl, 1.8 mM CaCl2, 0.8 mM MgSO4, 0.9 mM NaH2PO4, 25 mM glucose, 20 mM HEPES, pH 7.4) containing bovine serum albumin (1% w/v).
(§3) On the day of the experiment, the cells seeded in black plates were treated with assay buffer containing the Ca^2+ sensitive fluorescent dye Fluo-4-AM (2 μM), and probenecid (0.1 mM). After 1 h plates were washed twice with, and resuspended in, assay buffer containing probenecid (0.1 mM) using a multi plate washer. […] Fluorescence measurements were then continued every 1 S for 120 S followed by every 4 S for 240 S.
(§4) The measurements were typically made in two sequences:
(§5) Compounds of formula I were tested usually in a concentration range from 10^−9 M to 10^−5 M.
(§6) In the second round, performed one hour later (to allow for equilibration), Orexin A was tested either in the absence (calibration curves, Orexin A agonist controls) or in the presence of compounds of formula I to determine antagonism.

Test [2] deals with hOx1R (Homo sapiens (Human), UniProt O43613). Description: Calcium accumulation in cells (FLIPR), hOx1R. In kind it is cell-based. Particulars: for Ki: inhibition of orexin A induced calcium accumulation, Cheng and Prusoff correction; for inhibition at 10 µM: measured at a concentration of 10 μM of compound. Here is the method: as §1, §2, §3, §4, §5, §6
Sequence of hOx1R (O43613 whole entry): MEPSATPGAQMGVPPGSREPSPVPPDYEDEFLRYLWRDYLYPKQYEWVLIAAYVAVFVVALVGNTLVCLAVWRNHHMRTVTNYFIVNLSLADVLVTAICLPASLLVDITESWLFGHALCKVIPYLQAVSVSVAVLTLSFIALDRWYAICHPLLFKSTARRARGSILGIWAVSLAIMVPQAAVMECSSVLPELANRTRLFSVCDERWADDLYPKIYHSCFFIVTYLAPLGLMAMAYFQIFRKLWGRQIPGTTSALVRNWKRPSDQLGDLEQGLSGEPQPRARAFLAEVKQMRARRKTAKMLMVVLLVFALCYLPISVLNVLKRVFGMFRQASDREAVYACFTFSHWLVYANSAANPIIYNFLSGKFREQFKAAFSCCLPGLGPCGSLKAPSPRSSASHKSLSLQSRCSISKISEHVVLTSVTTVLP

Sequence of hOx2R (O43614 whole entry): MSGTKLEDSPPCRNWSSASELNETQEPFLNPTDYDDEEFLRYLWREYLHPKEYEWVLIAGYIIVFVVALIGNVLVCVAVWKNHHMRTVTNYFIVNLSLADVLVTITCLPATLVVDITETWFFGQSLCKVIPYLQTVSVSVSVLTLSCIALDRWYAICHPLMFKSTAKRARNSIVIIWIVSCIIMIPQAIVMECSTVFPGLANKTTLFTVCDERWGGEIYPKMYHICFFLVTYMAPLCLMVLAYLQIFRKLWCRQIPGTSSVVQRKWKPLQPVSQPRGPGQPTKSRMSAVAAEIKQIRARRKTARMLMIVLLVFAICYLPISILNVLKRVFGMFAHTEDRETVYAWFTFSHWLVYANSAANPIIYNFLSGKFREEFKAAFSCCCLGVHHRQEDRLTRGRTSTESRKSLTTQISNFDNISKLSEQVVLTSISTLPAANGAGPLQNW

Broadly, the Ki is a measure of affinity in units of concentration, obtained from inhibition or displacement. Turning to `Cc1cccc(-c2sc(C)nc2CN2CCCC3(CCN(c4cnc5ccccc5n4)CC3)C2=O)c1` [Example 69, 2-((2-methyl-5-m-tolylthiazol-4-yl)methyl)-9-(quinoxalin-2-yl)-2,9-diazaspiro[5.5]undecan-1-one], the Ki in test [1] was 163 nM; in test [2], 1110 nM.

Regarding `O=C1N(Cc2cnc3ccccn23)CCCC12CCN(c1cnc3ccccc3n1)CC2` [Example 70, 2-(imidazo[1,2-a]pyridin-3-ylmethyl)-9-(quinoxalin-2-yl)-2,9-diazaspiro[5.5]undecan-1-one], the Ki in test [1] amounted to 258 nM; in test [2], 3420 nM.

Consider `Cc1nc2ccccn2c1CN1CCCC2(CCN(c3cnc4ccccc4n3)CC2)C1=O` [Example 71, 2-((2-methylimidazo[1,2-a]pyridin-3-yl)methyl)-9-(quinoxalin-2-yl)-2,9-diazaspiro[5.5]undecan-1-one], for which the Ki worked out at 466 nM in test [1] and 2160 nM in test [2].

Turning to `O=C1N(Cc2ccnc(Br)c2)CCCC12CCN(c1cnc3ccccc3n1)CC2` [Example 72, 2-((2-bromopyridin-4-yl)methyl)-9-(quinoxalin-2-yl)-2,9-diazaspiro[5.5]undecan-1-one], the results for the Ki in test [1] and in test [2] were 452 nM and 3100 nM, respectively.

On to `CC(c1c[nH]c2ccccc12)N1CCCC2(CCN(c3cnc4ccccc4n3)CC2)C1=O` (stereo not shown) [Example 74, 2-(1-(1H-indol-3-yl)ethyl)-9-(quinoxalin-2-yl)-2,9-diazaspiro[5.5]undecan-1-one], for which the results for the Ki in test [1] and in test [2] were 185 nM and 675 nM, respectively.

As a reminder, the inhibition is the drop in the measured response relative to a control, in per cent. On to `O=C1N(Cc2nnc3ccccn23)CCCC12CCN(c1cnc3ccccc3n1)CC2` [Example 75, 2-([1,2,4]triazolo[4,3-a]pyridin-3-ylmethyl)-9-(quinoxalin-2-yl)-2,9-diazaspiro[5.5]undecan-1-one], for which the values for the inhibition at 10 µM in test [1] and in test [2] were 35% and 22%, respectively.

As for `Cn1nc2ccccc2c1CN1CCCC2(CCN(c3cnc4ccccc4n3)CC2)C1=O` [Example 76, 2-((2-methyl-2H-indazol-3-yl)methyl)-9-(quinoxalin-2-yl)-2,9-diazaspiro[5.5]undecan-1-one], the inhibitory constant (Ki) in test [1] was 559 nM. Besides, the inhibition at 10 µM in test [2] came out at 44%.

Consider `O=C1N(Cc2ccc(Cl)nc2)CCCC12CCN(c1cnc3ccccc3n1)CC2` [Example 78, 2-((6-chloropyridin-3-yl)methyl)-9-(quinoxalin-2-yl)-2,9-diazaspiro[5.5]undecan-1-one], for which the inhibition at 10 µM in test [1] worked out at 32%; in test [2], 15%.

Consider `O=C1N(Cc2cnn3ccccc23)CCCC12CCN(c1cnc3ccccc3n1)CC2` [Example 79, 2-(pyrazolo[1,5-a]pyridin-3-ylmethyl)-9-(quinoxalin-2-yl)-2,9-diazaspiro[5.5]undecan-1-one], for which the inhibitory constant (Ki) in test [1] was 232 nM; in test [2], 2150 nM.

For `COCc1cccc(CN2CCCC3(CCN(c4cnc5ccccc5n4)CC3)C2=O)c1` [Example 80, 2-(3-(methoxymethyl)benzyl)-9-(quinoxalin-2-yl)-2,9-diazaspiro[5.5]undecan-1-one], the Ki is 96 nM in test [1] and 2990 nM in test [2].

Regarding `O=C1N(Cc2ccc(-n3cncn3)cc2)CCCC12CCN(c1cnc3ccccc3n1)CC2` [Example 81, 2-(4-(1H-1,2,4-triazol-1-yl)benzyl)-9-(quinoxalin-2-yl)-2,9-diazaspiro[5.5]undecan-1-one], the Ki in test [1] is 1580 nM. Also, in test [2], the inhibition at 10 µM was found to be 13%.

Turning to `Cc1cc(CN2CCCC3(CCN(c4cnc5ccccc5n4)CC3)C2=O)nn1C` [Example 84, 2-((1,5-dimethyl-1H-pyrazol-3-yl)methyl)-9-(quinoxalin-2-yl)-2,9-diazaspiro[5.5]undecan-1-one], the inhibition at 10 µM in test [1] stood at 46%; in test [2], 40%.

For the compound `O=C1N(Cc2ccccc2-n2cccn2)CCCC12CCN(c1cnc3ccccc3n1)CC2` [Example 85, 2-(2-(1H-pyrazol-1-yl)benzyl)-9-(quinoxalin-2-yl)-2,9-diazaspiro[5.5]undecan-1-one], in test [1], the Ki came to 822 nM. For the same compound, the inhibition at 10 µM in test [2] was 15%.

Regarding `O=C1N(Cc2nccn2Cc2ccccc2)CCCC12CCN(c1cnc3ccccc3n1)CC2` [Example 86, 2-((1-benzyl-1H-imidazol-2-yl)methyl)-9-(quinoxalin-2-yl)-2,9-diazaspiro[5.5]undecan-1-one], the Ki in test [1] worked out at 372 nM. Besides, the inhibition at 10 µM in test [2] is 47%.

Consider `Cc1cc(CN2CCCC3(CCN(c4cnc5ccccc5n4)CC3)C2=O)no1` [Example 88, 2-((5-methylisoxazol-3-yl)methyl)-9-(quinoxalin-2-yl)-2,9-diazaspiro[5.5]undecan-1-one], for which the inhibition at 10 µM was 25% in test [1] and 11% in test [2].

Turning to `O=C1N(Cc2noc(C3CCC3)n2)CCCC12CCN(c1cnc3ccccc3n1)CC2` [Example 89, 2-((5-cyclobutyl-1,2,4-oxadiazol-3-yl)methyl)-9-(quinoxalin-2-yl)-2,9-diazaspiro[5.5]undecan-1-one], the inhibition at 10 µM in test [1] is 24%; in test [2], 29%.

In the case of `O=C1N(Cc2ccc(C(F)(F)F)nc2)CCCC12CCN(c1cnc3ccccc3n1)CC2` [Example 90, 9-(quinoxalin-2-yl)-2-((6-(trifluoromethyl)pyridin-3-yl)methyl)-2,9-diazaspiro[5.5]undecan-1-one], the inhibition at 10 µM in test [1] was found to be 12%; in test [2], 17%.

Regarding `COc1ccnc(CN2CCCC3(CCN(c4cnc5ccccc5n4)CC3)C2=O)c1OC` [Example 91, 2-((3,4-dimethoxypyridin-2-yl)methyl)-9-(quinoxalin-2-yl)-2,9-diazaspiro[5.5]undecan-1-one], in test [1], the inhibition at 10 µM was 38%. The inhibition constant Ki in test [2] was 2870 nM.

As for `N#Cc1cccc(CN2CCCC3(CCN(c4cnc5ccccc5n4)CC3)C2=O)c1` [Example 92, 3-((1-oxo-9-(quinoxalin-2-yl)-2,9-diazaspiro[5.5]undecan-2-yl)methyl)benzonitrile], the figures for the Ki in test [1] and in test [2] were 649 nM and 3060 nM, respectively.

Consider `O=C1N(Cc2nccc3ccccc23)CCCC12CCN(c1cnc3ccccc3n1)CC2` [Example 93, 2-(isoquinolin-1-ylmethyl)-9-(quinoxalin-2-yl)-2,9-diazaspiro[5.5]undecan-1-one], for which the results for the Ki in test [1] and in test [2] were 158 nM and 1310 nM, respectively.

Turning to `N#Cc1cc(CN2CCCC3(CCN(c4cnc5ccccc5n4)CC3)C2=O)ccc1F` [Example 94, 2-fluoro-5-((1-oxo-9-(quinoxalin-2-yl)-2,9-diazaspiro[5.5]undecan-2-yl)methyl)benzonitrile], the results for the Ki in test [1] and in test [2] were 282 nM and 1700 nM, respectively.

For the compound `O=C1N(Cc2cc(=O)[nH]c3ccccc23)CCCC12CCN(c1cnc3ccccc3n1)CC2` [Example 96, 4-((1-oxo-9-(quinoxalin-2-yl)-2,9-diazaspiro[5.5]undecan-2-yl)methyl)quinolin-2(1H)-one], the inhibition constant Ki in test [1] was 631 nM; in test [2], 2400 nM.

As for `Cc1cccc(CN2CCCC3(CCN(c4cnc5ccccc5n4)CC3)C2=O)n1` [Example 97, 2-((6-methylpyridin-2-yl)methyl)-9-(quinoxalin-2-yl)-2,9-diazaspiro[5.5]undecan-1-one], the inhibition at 10 µM in test [1] worked out at 33%; in test [2] it was 14%.
